Measurements reported in patent publication US20180250280A1 (BAYER PHARMA AKTIENGESELLSCHAFT, priority 2015, published 2018).

What was measured:
[1] = molecular target: T1, human factor XIa (Homo sapiens, UniProt P03951); test: Measurement of FXIa inhibition (fluorogenic peptide substrate, AMC cleavage); type: biochemical; settings: factor XIa from Kordia 0.45 nM; substrate Boc-Glu(OBzl)-Ala-Arg-AMC 10 μM; 30 min at 22° C.; in some cases averages from multiple determinations
T1 construct: purchased Kordia
Procedure: (§1) The factor XIa inhibition of the substances according to the invention is determined using a biochemical test system which utilizes the reaction of a peptidic factor XIa substrate to determine the enzymatic activity of human factor XIa. Here, factor XIa cleaves from the peptic factor XIa substrate the C-terminal aminomethylcoumarin (AMC), the fluorescence of which is measured. The determinations are conducted in microtitre plates.
Test substances are dissolved in dimethyl sulfoxide and serially diluted in dimethyl sulfoxide (3000 μM to 0.0078 μM; resulting final concentrations in the test: 50 μM to 0.00013 μM). 1 μl of the diluted substance solutions is placed into each of the wells of white microtitre plates from Greiner (384 wells). 20 μl of assay buffer (50 mM of Tris/HCl pH 7.4; 100 mM of sodium chloride; 5 mM of calcium chloride; 0.1% of bovine serum albumin) and 20 μl of factor XIa from Kordia (0.45 nM in assay buffer) are then added successively. After 15 min of incubation, the enzyme reaction is started by addition of 20 μl of the factor XIa substrate Boc-Glu(OBzl)-Ala-Arg-AMC dissolved in assay buffer (10 μM in assay buffer) from Bachem, the mixture is incubated at room temperature (22° C.) for 30 min and fluorescence is then measured (excitation: 360 nm, emission: 460 nm). The measured emissions of the test batches with test substance are compared to those of control batches without test substance (only dimethyl sulfoxide instead of test substance in dimethyl sulfoxide), and IC50 values are calculated from the concentration/activity relationships. Activity data from this test are given in Table A below (in some cases as averages from multiple individual determinations): […]

[2] = molecular target: T2, human plasma kallikrein (Homo sapiens, UniProt P03952); test: Determination of the plasma kallikrein activity (fluorogenic peptide substrate, AMC cleavage); type: biochemical; settings: plasma kallikrein from Kordia 0.6 nM; substrate H-Pro-Phe-Arg-AMC 10 μM; 30 min at 22° C.; in some cases averages from multiple determinations
T2 construct: purchased Kordia
Procedure: as §1, with “To determine the plasma kallikrein” for “The factor XIa”, “invention,” for “invention is determined using”, “system is used” for “system”, “plasma kallikrein” for “factor XIa”, “plasma kallikrein.” for “factor XIa.”
Test substances are dissolved in dimethyl sulfoxide and serially diluted in dimethyl sulfoxide (3000 μM to 0.0078 μM; resulting final concentrations in the test: 50 μM to 0.00013 μM). 1 μl of the diluted substance solutions is placed into each of the wells of white microtitre plates from Greiner (384 wells). 20 μl of assay buffer (50 mM Tris/HCl pH 7.4; 100 mM sodium chloride solution; 5 mM calcium chloride solution; 0.1% of bovine serum albumin) and 20 μl of plasma kallikrein from Kordia (0.6 nM in assay buffer) are then added successively. After 15 min of incubation, the enzyme reaction is started by addition of 20 μl of the substrate H-Pro-Phe-Arg-AMC dissolved in assay buffer (10 μM in assay buffer) from Bachem, the mixture is incubated at room temperature (22° C.) for 30 min and fluorescence is then measured (excitation: 360 nm, emission: 460 nm). The measured emissions of the test batches with test substance are compared to those of control batches without test substance (only dimethyl sulfoxide instead of test substance in dimethyl sulfoxide), and IC50 values are calculated from the concentration/activity relationships. Activity data from this test are given in Table B below (in some cases as averages from multiple individual determinations): […]

T1 sequence (P03951 388-625 limits assumed): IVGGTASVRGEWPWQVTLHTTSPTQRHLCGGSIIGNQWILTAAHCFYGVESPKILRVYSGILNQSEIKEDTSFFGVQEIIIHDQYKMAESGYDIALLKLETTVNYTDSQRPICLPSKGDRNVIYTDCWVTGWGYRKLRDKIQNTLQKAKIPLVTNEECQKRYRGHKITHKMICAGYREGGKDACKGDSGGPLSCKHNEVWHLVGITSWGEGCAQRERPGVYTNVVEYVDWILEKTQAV
T1 sequence (P03951 19-387 partner limits assumed): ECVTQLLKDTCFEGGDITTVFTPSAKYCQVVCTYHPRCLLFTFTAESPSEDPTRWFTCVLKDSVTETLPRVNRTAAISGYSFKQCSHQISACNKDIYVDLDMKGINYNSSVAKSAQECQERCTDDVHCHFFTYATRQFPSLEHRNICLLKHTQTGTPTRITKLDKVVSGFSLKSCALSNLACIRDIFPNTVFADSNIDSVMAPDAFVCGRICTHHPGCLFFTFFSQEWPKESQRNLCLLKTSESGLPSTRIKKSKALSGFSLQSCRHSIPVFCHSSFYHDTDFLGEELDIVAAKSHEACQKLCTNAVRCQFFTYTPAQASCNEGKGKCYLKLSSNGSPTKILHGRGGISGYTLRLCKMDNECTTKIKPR
T2 sequence (P03952 391-638 limits assumed): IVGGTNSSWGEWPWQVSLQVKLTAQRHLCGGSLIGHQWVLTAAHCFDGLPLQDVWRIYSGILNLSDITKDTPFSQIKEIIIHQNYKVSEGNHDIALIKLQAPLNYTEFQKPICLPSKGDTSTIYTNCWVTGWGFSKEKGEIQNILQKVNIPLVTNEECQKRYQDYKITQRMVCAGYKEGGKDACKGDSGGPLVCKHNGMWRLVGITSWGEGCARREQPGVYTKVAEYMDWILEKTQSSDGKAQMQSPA
T2 sequence (P03952 20-390 partner limits assumed): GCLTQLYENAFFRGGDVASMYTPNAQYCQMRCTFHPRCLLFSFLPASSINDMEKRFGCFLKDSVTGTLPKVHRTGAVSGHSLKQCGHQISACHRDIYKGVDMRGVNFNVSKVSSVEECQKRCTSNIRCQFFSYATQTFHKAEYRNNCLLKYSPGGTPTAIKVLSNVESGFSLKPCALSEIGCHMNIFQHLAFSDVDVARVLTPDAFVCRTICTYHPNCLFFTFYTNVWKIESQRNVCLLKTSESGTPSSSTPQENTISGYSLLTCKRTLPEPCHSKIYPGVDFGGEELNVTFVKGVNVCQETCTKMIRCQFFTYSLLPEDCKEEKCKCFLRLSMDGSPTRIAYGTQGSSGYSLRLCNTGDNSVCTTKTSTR

| SMILES | IC50 [1] | IC50 [2] |
| --- | --- | --- |
| COc1cn(C(CCOC(C)C)C(=O)Nc2ccc3nn(C)cc3c2)c(=O)cc1-c1cc(Cl)ccc1OCC(F)(F)F (racemic) [Example 39, 2-{4-[5-Chloro-2-(2,2,2-trifluoroethoxy)phenyl]-5-methoxy-2-oxopyridin-1(2H)-yl}-4-isopropoxy-N-(2-methyl-2H-indazol-5-yl)butanamide] | 16 nM | 56 nM |
| COc1cn(C(CCOC(C)(C)C)C(=O)Nc2ccc(C(=O)O)cc2)c(=O)cc1-c1cc(Cl)ccc1OCC(F)(F)F (single isomer, unassigned) [Example 8, 4-[(4-tert-Butoxy-2-{4-[5-chloro-2-(2,2,2-trifluoroethoxy)phenyl]-5-methoxy-2-oxopyridin-1(2H)-yl}butanoyl)amino]benzoic acid] | 0.94 nM | 19 nM |
| COc1cn(C(C[C@@H]2CCCCO2)C(=O)Nc2ccc(C(N)=O)nc2)c(=O)cc1-c1cc(Cl)ccc1OCC(F)(F)F (stereo partly shown) [Example 54] | 3 nM | 90 nM |
| COc1cn(C(CC2COCCO2)C(=O)Nc2ccc(C(N)=O)nc2)c(=O)cc1-c1cc(Cl)ccc1OCC(F)(F)F (stereo not shown) [Example 18, 5-{[2-{4-[5-Chloro-2-(2,2,2-trifluoroethoxy)phenyl]-5-methoxy-2-oxopyridin-1(2H)-yl}-3-(1,4-dioxan-2-yl)propanoyl]amino}pyridine-2-carboxamide] | 3.2 nM | 55 nM |
| COc1cc(NC(=O)[C@H](CCOC(C)(C)C)n2cc(OC)c(-c3cc(Cl)ccc3OCC(F)(F)F)cc2=O)ccc1C(=O)O (single isomer, unassigned) [Example 70, 4-{[4-tert-Butoxy-2-{4-[5-chloro-2-(2,2,2-trifluoroethoxy)phenyl]-5-methoxy-2-oxopyridin-1(2H)-yl}butanoyl]amino}-2-methoxybenzoic acid] | 1.3 nM | 58 nM |
| COc1cn([C@@H](CCOC(C)(C)C)C(=O)Nc2ccc3nc(C(=O)O)cn3c2)c(=O)cc1-c1cc(Cl)ccc1OCC(F)(F)F (single isomer, unassigned) [Example 71, 6-{[4-tert-Butoxy-2-{4-[5-chloro-2-(2,2,2-trifluoroethoxy)phenyl]-5-methoxy-2-oxopyridin-1(2H)-yl}butanoyl]amino}imidazo[1,2-a]pyridine-2-carboxylic acid] | 0.93 nM | 10 nM |
| COc1cn([C@@H](C[C@@H]2CCCCO2)C(=O)Nc2ccc(C(=O)O)cc2)c(=O)cc1-c1cc(Cl)ccc1OCC(F)(F)F (single isomer, unassigned) [Example 78] | 0.41 nM | 19 nM |
| COc1cn(C(C[C@H](C)OC)C(=O)Nc2ccc(C(N)=O)c(F)c2)c(=O)cc1-c1cc(Cl)ccc1OCC(F)(F)F (mixture of isomers) [Example 40, 4-{[(4S)-2-{4-[5-Chloro-2-(2,2,2-trifluoroethoxy)phenyl]-5-methoxy-2-oxopyridin-1(2H)-yl}-4-methoxypentanoyl]amino}-2-fluorobenzamide] | 19 nM | 230 nM |
| CNC(=O)c1ccc(NC(=O)C(C[C@H](C)OC)n2cc(OC)c(-c3cc(Cl)ccc3OCC(F)(F)F)cc2=O)cn1 (mixture of isomers) [Example 36, 5-{[(4S)-2-{4-[5-Chloro-2-(2,2,2-trifluoroethoxy)phenyl]-5-methoxy-2-oxopyridin-1(2H)-yl}-4-methoxypentanoyl]amino}-N-methylpyridine-2-carboxamide] | 6.2 nM | 70 nM |
| CNC(=O)c1ccc(NC(=O)C(CCOC(C)(C)C)n2cc(OC)c(-c3cc(Cl)ccc3OCC(F)(F)F)cc2=O)cn1 (racemic) [Example 12, 5-[(4-tert-Butoxy-2-{4-[5-chloro-2-(2,2,2-trifluoroethoxy)phenyl]-5-methoxy-2-oxopyridin-1(2H)-yl}butanoyl)amino]-N-methylpyridine-2-carboxamide] | 12 nM | 60 nM |
| COc1cn(C(Cc2ccn(C)n2)C(=O)Nc2ccc(C(=O)O)cc2)c(=O)cc1-c1cc(Cl)ccc1OCC(F)(F)F (racemic) [Example 13, 4-{[2-{4-[5-Chloro-2-(2,2,2-trifluoroethoxy)phenyl]-5-methoxy-2-oxopyridin-1(2H)-yl}-3-(1-methyl-1H-pyrazol-3-yl)propanoyl]amino}benzoic acid] | 1.3 nM | 14 nM |
| CNC(=O)c1ccc(NC(=O)C(CC2COCCO2)n2cc(OC)c(-c3cc(Cl)ccc3OCC(F)F)cc2=O)cn1 (stereo not shown) [Example 31, 5-{[2-{4-[5-Chloro-2-(2,2-difluoroethoxy)phenyl]-5-methoxy-2-oxopyridin-1(2H)-yl}-3-(1,4-dioxan-2-yl)propanoyl]amino}-N-methylpyridine-2-carboxamide] | 7.1 nM | 120 nM |
| COc1cn(C(C[C@@H]2CCCCO2)C(=O)Nc2ccc(C(=O)O)s2)c(=O)cc1-c1cc(Cl)ccc1OCC(F)(F)F (stereo partly drawn) [Example 72, 5-({2-{4-[5-Chloro-2-(2,2,2-trifluoroethoxy)phenyl]-5-methoxy-2-oxopyridin-1(2H)-yl}-3-[(2S)-tetrahydro-2H-pyran-2-yl]propanoyl}amino)thiophene-2-carboxylic acid] | 1.6 nM | 24 nM |
| COc1cn(C(CC2COCCO2)C(=O)Nc2ccc(C(N)=O)nc2)c(=O)cc1-c1cc(Cl)ccc1OCC(F)F (stereo not shown) [Example 30, 5-{[2-{4-[5-Chloro-2-(2,2-difluoroethoxy)phenyl]-5-methoxy-2-oxopyridin-1(2H)-yl}-3-(1,4-dioxan-2-yl)propanoyl]amino}pyridine-2-carboxamide] | 4.7 nM | 74 nM |
| CNC(=O)c1ccc(NC(=O)C(CC2COCCO2)n2cc(OC)c(-c3cc(Cl)ccc3OCC(F)(F)F)cc2=O)cn1 (stereo not shown) [Example 19, 5-{[2-{4-[5-Chloro-2-(2,2,2-trifluoroethoxy)phenyl]-5-methoxy-2-oxopyridin-1(2H)-yl}-3-(1,4-dioxan-2-yl)propanoyl]amino}-N-methylpyridine-2-carboxamide] | 3.4 nM | 38 nM |
| COc1cn(C(C[C@@H]2CCCCO2)C(=O)Nc2ccc(C(N)=O)c(F)c2)c(=O)cc1-c1cc(Cl)ccc1OCC(F)(F)F (stereo partly drawn) [Example 53, 4-[(2-{4-[5-Chloro-2-(2,2,2-trifluoroethoxy)phenyl]-5-methoxy-2-oxopyridin-1(2H)-yl}-3-[(2S)-tetrahydro-2H-pyran-2-yl]propanoyl)amino]-2-fluorobenzamide] | 9.3 nM | 210 nM |
| COc1cn(C(CC2COCCO2)C(=O)Nc2ccc(C(N)=O)nc2)c(=O)cc1-c1cc(Cl)ccc1OCCF (stereo not shown) [Example 45, 5-{[2-{4-[5-Chloro-2-(2-fluoroethoxy)phenyl]-5-methoxy-2-oxopyridin-1(2H)-yl}-3-(1,4-dioxan-2-yl)propanoyl]amino}pyridine-2-carboxamide] | 14 nM | 280 nM |
| COc1cn(C(C[C@@H]2CCCCO2)C(=O)Nc2ccc(C(=O)O)cc2)c(=O)cc1-c1cc(Cl)ccc1OCC(F)(F)F (single isomer, unassigned) [Example 50] | 0.41 nM | 19 nM |
| CNC(=O)c1ccc(NC(=O)C(CCOC)n2cc(OC)c(-c3cc(Cl)ccc3OCC(F)(F)F)cc2=O)cn1 (racemic) [Example 4, 5-[(2-{4-[5-Chloro-2-(2,2,2-trifluoroethoxy)phenyl]-5-methoxy-2-oxopyridin-1(2H)-yl}-4-methoxybutanoyl)amino]-N-methylpyridine-2-carboxamide] | 6.5 nM | 49 nM |
| COc1cn(C(CCOC(F)(F)F)C(=O)Nc2ccc3nn(C)cc3c2)c(=O)cc1-c1cc(Cl)ccc1OCC(F)(F)F (racemic) [Example 38, 2-{4-[5-Chloro-2-(2,2,2-trifluoroethoxy)phenyl]-5-methoxy-2-oxopyridin-1(2H)-yl}-N-(2-methyl-2H-indazol-5-yl)-4-(trifluoromethoxy)butanamide] | 13 nM | 93 nM |
